ChEMBL document CHEMBL1155486, “From 6-aminoquinolone antibacterials to 6-amino-7-thiopyranopyridinylquinolone ethyl esters as inhibitors of Staphylococcus aureus multidrug efflux pumps” (2010)
≈ marks a conversion by molar mass, not a printed value. Values belong to the compound of their own block, whether it stands above or below them.

Legend:
Staphylococcus aureus [1] = assay: Antibacterial activity against Staphylococcus aureus SA-1199B by EtBr efflux assay; assay type: functional
[2] = biological target: T1, Quinolone resistance protein NorA (Staphylococcus aureus) (UniProt P0A0J7); assay: Inhibition of NorA in Staphylococcus aureus SA-1199B assessed as reduction in ethidium bromide efflux at 50 uM by fluorimetry; parameters: scale not given: the % may be the effect or the level left
T1 sequence (whole entry): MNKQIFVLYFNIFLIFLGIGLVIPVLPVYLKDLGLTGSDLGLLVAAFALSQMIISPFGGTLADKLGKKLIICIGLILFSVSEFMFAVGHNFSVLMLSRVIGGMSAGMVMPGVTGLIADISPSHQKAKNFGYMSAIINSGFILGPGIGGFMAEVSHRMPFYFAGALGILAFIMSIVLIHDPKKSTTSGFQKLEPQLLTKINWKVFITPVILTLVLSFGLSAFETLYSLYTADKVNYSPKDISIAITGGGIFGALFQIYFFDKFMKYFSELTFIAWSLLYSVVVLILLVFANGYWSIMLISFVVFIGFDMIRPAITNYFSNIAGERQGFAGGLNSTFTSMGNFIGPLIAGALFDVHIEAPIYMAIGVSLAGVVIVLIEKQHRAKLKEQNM

Staphylococcus aureus [3] = assay: Antibacterial activity against Staphylococcus aureus SA-K1902 bearing norA- deficient mutation by microdilution technique; assay type: functional
Staphylococcus aureus [4] = assay: Antibacterial activity against methicillin and ciprofloxacin-resistant Staphylococcus aureus 25A by microdilution technique; assay type: functional
Escherichia coli = assay: Antibacterial activity against Escherichia coli ATCC 25922 by microdilution technique; assay type: functional
Staphylococcus aureus [5] = assay: Antibacterial activity against Staphylococcus aureus ATCC 25923 by microdilution technique; assay type: functional
Staphylococcus aureus [6] = assay: Antibacterial activity against Staphylococcus aureus SA-K1904 bearing norA++ efficient mutation by microdilution technique; assay type: functional
Staphylococcus aureus [7] = assay: Antibacterial activity against wild-type norA expressing Staphylococcus aureus SA-1199 by microdilution technique; assay type: functional
Staphylococcus aureus [8] = assay: Antibacterial activity against Staphylococcus aureus SA-1199B norA++ and A116E GrlA mutation by microdilution technique; assay type: functional
Staphylococcus aureus [9] = assay: Antibacterial activity against Staphylococcus aureus K1035 bearing wild-type GyrA and S80F mutant GrlA by microdilution technique; assay type: functional
Staphylococcus aureus [10] = assay: Antibacterial activity against Staphylococcus aureus K1134 bearing wild-type GyrA and S80Y mutant GrlA by microdilution technique; assay type: functional
Staphylococcus aureus [11] = assay: Antibacterial activity against Staphylococcus aureus K1305 bearing wild-type GyrA and E84K mutant GrlA by microdilution technique; assay type: functional
Staphylococcus aureus [12] = assay: Antibacterial activity against Staphylococcus aureus K1628 bearing S84L mutant GyrA and S80F mutant GrlA by microdilution technique; assay type: functional
Staphylococcus aureus [13] = assay: Antibacterial activity against Staphylococcus aureus K1640 bearing S84L mutant GyrA and S80Y mutant GrlA by microdilution technique; assay type: functional

SMILES: CCOC(=O)c1cn(C2CC2)c2cc(N3CCNCC3)c(F)cc2c1=O [CIPROFLOXACIN ETHYL ESTER]
MIC50 (Staphylococcus aureus [1]): > 100 µg/mL
Activity [2]: 20.8%

SMILES: CC1CSC2=C(CN(c3cc4c(cc3N)c(=O)c(C(=O)O)cn4C3CC3)CC2)/C1=N/O (configuration not stated)
MIC (Staphylococcus aureus [3]): 1.56 µg/mL (≈ 3.54 µM)
MIC (Staphylococcus aureus [4]): 32 µg/mL (≈ 72.6 µM)
MIC (Escherichia coli): 32 µg/mL (≈ 72.6 µM)
MIC (Staphylococcus aureus [5]): 6.25 µg/mL (≈ 14.2 µM)
MIC (Staphylococcus aureus [6]): 3.13 µg/mL (≈ 7.11 µM)
MIC (Staphylococcus aureus [7]): 1.56 µg/mL (≈ 3.54 µM)
MIC (Staphylococcus aureus [8]): 6.25 µg/mL (≈ 14.2 µM)

SMILES: Nc1cc2c(=O)c(C(=O)O)cn(C3CC3)c2cc1N1CCC2=C(C1)C(O)CCS2 (configuration not stated)
MIC (Staphylococcus aureus [3]): 12.5 µg/mL (≈ 30.2 µM)
MIC (Staphylococcus aureus [4]): 128 µg/mL (≈ 310 µM)
MIC (Escherichia coli): 128 µg/mL (≈ 310 µM)
MIC (Staphylococcus aureus [5]): 16 µg/mL (≈ 38.7 µM)
MIC (Staphylococcus aureus [6]): 25 µg/mL (≈ 60.5 µM)
MIC (Staphylococcus aureus [7]): 25 µg/mL (≈ 60.5 µM)
MIC (Staphylococcus aureus [8]): > 100 µg/mL

SMILES: CO/N=C1/C2=C(CCN(c3cc4c(cc3F)c(=O)c(C(=O)O)cn4C3CC3)C2)SCC1C (configuration not stated)
MIC (Staphylococcus aureus [3]): 2.5 µg/mL (≈ 5.46 µM)
MIC (Staphylococcus aureus [4]): 8 µg/mL (≈ 17.5 µM)
MIC (Escherichia coli): 64 µg/mL (≈ 140 µM)
MIC (Staphylococcus aureus [5]): 2 µg/mL (≈ 4.37 µM)
MIC (Staphylococcus aureus [6]): 2.5 µg/mL (≈ 5.46 µM)
MIC (Staphylococcus aureus [7]): 2.5 µg/mL (≈ 5.46 µM)
MIC (Staphylococcus aureus [8]): 5 µg/mL (≈ 10.9 µM)

SMILES: CO/N=C1\CCSC2=C1CN(c1cc3c(cc1N)c(=O)c(C(=O)O)cn3C1CC1)CC2
MIC (Staphylococcus aureus [3]): 1.56 µg/mL (≈ 3.54 µM)
MIC (Staphylococcus aureus [4]): 8 µg/mL (≈ 18.2 µM)
MIC (Escherichia coli): 16 µg/mL (≈ 36.3 µM)
MIC (Staphylococcus aureus [5]): 2 µg/mL (≈ 4.54 µM)
MIC (Staphylococcus aureus [6]): 3.13 µg/mL (≈ 7.11 µM)
MIC (Staphylococcus aureus [7]): 3.13 µg/mL (≈ 7.11 µM)
MIC (Staphylococcus aureus [8]): 12.5 µg/mL (≈ 28.4 µM)

SMILES: Cc1c(N2CCC3=C(C2)C(O)CCS3)c(N)cc2c(=O)c(C(=O)O)cn(C3CC3)c12 (configuration not stated)
MIC (Staphylococcus aureus [3]): > 100 µg/mL
MIC (Staphylococcus aureus [4]): > 128 µg/mL
MIC (Escherichia coli): > 128 µg/mL
MIC (Staphylococcus aureus [5]): > 128 µg/mL
MIC (Staphylococcus aureus [6]): > 100 µg/mL
MIC (Staphylococcus aureus [7]): > 100 µg/mL
MIC (Staphylococcus aureus [8]): > 100 µg/mL

SMILES: CO/N=C1\CCSC2=C1CN(c1c(N)cc3c(=O)c(C(=O)O)cn(C4CC4)c3c1C)CC2
MIC (Staphylococcus aureus [3]): 0.31 µg/mL (≈ 0.682 µM)
MIC (Staphylococcus aureus [4]): 32 µg/mL (≈ 70.4 µM)
MIC (Escherichia coli): 16 µg/mL (≈ 35.2 µM)
MIC (Staphylococcus aureus [5]): 0.16 µg/mL (≈ 0.352 µM)
MIC (Staphylococcus aureus [6]): 0.31 µg/mL (≈ 0.682 µM)
MIC (Staphylococcus aureus [7]): 0.31 µg/mL (≈ 0.682 µM)
MIC (Staphylococcus aureus [8]): 0.31 µg/mL (≈ 0.682 µM)
MIC (Staphylococcus aureus [9]): 1.25 µg/mL (≈ 2.75 µM)
MIC (Staphylococcus aureus [10]): 2.5 µg/mL (≈ 5.5 µM)
MIC (Staphylococcus aureus [11]): 1.25 µg/mL (≈ 2.75 µM)
MIC (Staphylococcus aureus [12]): > 10 µg/mL
MIC (Staphylococcus aureus [13]): > 10 µg/mL

SMILES: O=C(O)c1cn(C2CC2)c2cc(N3CCNCC3)c(F)cc2c1=O [CIPROFLOXACIN]
MIC (Staphylococcus aureus [3]): 0.31 µg/mL (≈ 0.936 µM)
MIC (Staphylococcus aureus [4]): 32 µg/mL (≈ 96.6 µM)
MIC (Escherichia coli): ≤ 0.12 µg/mL
MIC (Staphylococcus aureus [5]): 0.5 µg/mL (≈ 1.51 µM)
MIC (Staphylococcus aureus [6]): 2.5 µg/mL (≈ 7.54 µM)
MIC (Staphylococcus aureus [7]): 0.31 µg/mL (≈ 0.936 µM)
MIC (Staphylococcus aureus [8]): 10 µg/mL (≈ 30.2 µM)
MIC (Staphylococcus aureus [9]): 2.5 µg/mL (≈ 7.54 µM)
MIC (Staphylococcus aureus [10]): 2.5 µg/mL (≈ 7.54 µM)
MIC (Staphylococcus aureus [11]): 2.5 µg/mL (≈ 7.54 µM)
MIC (Staphylococcus aureus [12]): > 10 µg/mL
MIC (Staphylococcus aureus [13]): > 10 µg/mL

SMILES: Nc1cc2c(=O)c(C(=O)O)cn(C3CC3)c2cc1N1CCC2=C(C1)/C(=N/O)CCS2
MIC (Staphylococcus aureus [3]): 1.56 µg/mL (≈ 3.66 µM)
MIC (Staphylococcus aureus [4]): 16 µg/mL (≈ 37.5 µM)
MIC (Escherichia coli): 2 µg/mL (≈ 4.69 µM)
MIC (Staphylococcus aureus [5]): 2 µg/mL (≈ 4.69 µM)
MIC (Staphylococcus aureus [6]): 6.25 µg/mL (≈ 14.7 µM)
MIC (Staphylococcus aureus [7]): 1.56 µg/mL (≈ 3.66 µM)
MIC (Staphylococcus aureus [8]): 12.5 µg/mL (≈ 29.3 µM)

MIC (Staphylococcus aureus [1]): > 100 µg/mL
Activity [2]: 35.7%
SMILES: CCOC(=O)c1cn(C2CC2)c2cc(N3CCC4=C(C3)C(=O)CCS4)c(N)cc2c1=O

SMILES: O=C(O)c1cn(C2CC2)c2cc(N3CCC4=C(C3)C(O)CCS4)c(F)cc2c1=O (configuration not stated)
MIC (Staphylococcus aureus [3]): 0.04 µg/mL (≈ 0.096 µM)
MIC (Staphylococcus aureus [4]): 8 µg/mL (≈ 19.2 µM)
MIC (Escherichia coli): 64 µg/mL (≈ 154 µM)
MIC (Staphylococcus aureus [5]): 0.08 µg/mL (≈ 0.192 µM)
MIC (Staphylococcus aureus [6]): 0.16 µg/mL (≈ 0.384 µM)
MIC (Staphylococcus aureus [7]): 0.04 µg/mL (≈ 0.096 µM)
MIC (Staphylococcus aureus [8]): 0.16 µg/mL (≈ 0.384 µM)
MIC (Staphylococcus aureus [9]): 0.63 µg/mL (≈ 1.51 µM)
MIC (Staphylococcus aureus [10]): 1.25 µg/mL (≈ 3 µM)
MIC (Staphylococcus aureus [11]): 0.63 µg/mL (≈ 1.51 µM)
MIC (Staphylococcus aureus [12]): > 10 µg/mL
MIC (Staphylococcus aureus [13]): > 10 µg/mL

MIC (Staphylococcus aureus [1]): > 100 µg/mL
Activity [2]: 47.3%
SMILES: CCOC(=O)c1cn(C2CC2)c2c(C)c(N3CCC4=C(C3)C(O)CCS4)c(N)cc2c1=O (configuration not stated)

SMILES: Cc1c(N2CCC3=C(C2)C(=O)CCS3)c(N)cc2c(=O)c(C(=O)O)cn(C3CC3)c12
MIC (Staphylococcus aureus [3]): 0.31 µg/mL (≈ 0.729 µM)
MIC (Staphylococcus aureus [4]): 4 µg/mL (≈ 9.4 µM)
MIC (Escherichia coli): 1 µg/mL (≈ 2.35 µM)
MIC (Staphylococcus aureus [5]): 0.25 µg/mL (≈ 0.588 µM)
MIC (Staphylococcus aureus [6]): 0.31 µg/mL (≈ 0.729 µM)
MIC (Staphylococcus aureus [7]): 0.31 µg/mL (≈ 0.729 µM)
MIC (Staphylococcus aureus [8]): 0.63 µg/mL (≈ 1.48 µM)
MIC (Staphylococcus aureus [9]): 1.25 µg/mL (≈ 2.94 µM)
MIC (Staphylococcus aureus [10]): 1.25 µg/mL (≈ 2.94 µM)
MIC (Staphylococcus aureus [11]): 1.25 µg/mL (≈ 2.94 µM)
MIC (Staphylococcus aureus [12]): > 10 µg/mL
MIC (Staphylococcus aureus [13]): > 10 µg/mL

SMILES: CO/N=C1/C2=C(CCN(c3cc4c(cc3N)c(=O)c(C(=O)O)cn4C3CC3)C2)SCC1C (configuration not stated)
MIC (Staphylococcus aureus [3]): 3.13 µg/mL (≈ 6.89 µM)
MIC (Staphylococcus aureus [4]): 4 µg/mL (≈ 8.8 µM)
MIC (Escherichia coli): 128 µg/mL (≈ 282 µM)
MIC (Staphylococcus aureus [5]): 4 µg/mL (≈ 8.8 µM)
MIC (Staphylococcus aureus [6]): 3.13 µg/mL (≈ 6.89 µM)
MIC (Staphylococcus aureus [7]): 6.25 µg/mL (≈ 13.7 µM)
MIC (Staphylococcus aureus [8]): 6.25 µg/mL (≈ 13.7 µM)

MIC (Staphylococcus aureus [1]): > 100 µg/mL
Activity [2]: 50.5%
SMILES: CCOC(=O)c1cn(C2CC2)c2c(C)c(N3CCC4=C(C3)C(=O)C(C)CS4)c(N)cc2c1=O (configuration not stated)

SMILES: CC1CSC2=C(CN(c3cc4c(cc3N)c(=O)c(C(=O)O)cn4C3CC3)CC2)C1=O (configuration not stated)
MIC (Staphylococcus aureus [3]): 1.56 µg/mL (≈ 3.67 µM)
MIC (Staphylococcus aureus [4]): 16 µg/mL (≈ 37.6 µM)
MIC (Escherichia coli): 64 µg/mL (≈ 150 µM)
MIC (Staphylococcus aureus [5]): 6.25 µg/mL (≈ 14.7 µM)
MIC (Staphylococcus aureus [6]): 6.25 µg/mL (≈ 14.7 µM)
MIC (Staphylococcus aureus [7]): 3.13 µg/mL (≈ 7.36 µM)
MIC (Staphylococcus aureus [8]): 12.5 µg/mL (≈ 29.4 µM)
